The numbers were not newly measured in patent US20100209503A1, “Bitter Taste Masking Dosage Form” (priority 2005, published 2010), which cites them from elsewhere.

Structures can show the parent of a compound that is named as a salt.

The conditions of the series: expression of General Notices of Japanese Pharmacopoeia 14th revision.
Regarding `Cc1c(C(C)C)c(=O)n(-c2ccccc2)n1C` [isopropylantipyrine], the solubility in water result was “hardly soluble (not less than 0.001 g/mL and less than 0.01 g/mL)”.
As to `NC(=O)c1cccnc1` [nicotinic acid amide], the solubility in water entry is “easily soluble (not less than 0.1 g/mL and less than 1.0 g/mL)”.
In the case of `CN(C)C(=O)c1nc(CNC(=O)CN)n(-c2ccc(Cl)cc2C(=O)c2ccccc2Cl)n1` [rilmazafone hydrochloride], the solubility in water entry is “slightly soluble (not less than 0.033 g/mL and less than 0.1 g/mL)”.
